Assay results from US20020123513A1, “Use of glycogen phosphorylase inhibitors to inhibit tumor growth” (priority 2000, published 2002).

Tests used:
[1] = molecular target: T1, human liver glycogen phosphorylase a (HLGPa) (Homo sapiens, UniProt P06737); assay: GPa activity assay, reverse direction (release of inorganic phosphate from glucose-1-phosphate), HLGPa; type: biochemical; details: recombinant human liver GPa, glucose present
T1 construct: made in house; host or cells: E. coli XL-1 Blue (pKK233-2) or Sf9 insect cells (pBlueBac II baculovirus)
T1 sequence (P06737 1-847): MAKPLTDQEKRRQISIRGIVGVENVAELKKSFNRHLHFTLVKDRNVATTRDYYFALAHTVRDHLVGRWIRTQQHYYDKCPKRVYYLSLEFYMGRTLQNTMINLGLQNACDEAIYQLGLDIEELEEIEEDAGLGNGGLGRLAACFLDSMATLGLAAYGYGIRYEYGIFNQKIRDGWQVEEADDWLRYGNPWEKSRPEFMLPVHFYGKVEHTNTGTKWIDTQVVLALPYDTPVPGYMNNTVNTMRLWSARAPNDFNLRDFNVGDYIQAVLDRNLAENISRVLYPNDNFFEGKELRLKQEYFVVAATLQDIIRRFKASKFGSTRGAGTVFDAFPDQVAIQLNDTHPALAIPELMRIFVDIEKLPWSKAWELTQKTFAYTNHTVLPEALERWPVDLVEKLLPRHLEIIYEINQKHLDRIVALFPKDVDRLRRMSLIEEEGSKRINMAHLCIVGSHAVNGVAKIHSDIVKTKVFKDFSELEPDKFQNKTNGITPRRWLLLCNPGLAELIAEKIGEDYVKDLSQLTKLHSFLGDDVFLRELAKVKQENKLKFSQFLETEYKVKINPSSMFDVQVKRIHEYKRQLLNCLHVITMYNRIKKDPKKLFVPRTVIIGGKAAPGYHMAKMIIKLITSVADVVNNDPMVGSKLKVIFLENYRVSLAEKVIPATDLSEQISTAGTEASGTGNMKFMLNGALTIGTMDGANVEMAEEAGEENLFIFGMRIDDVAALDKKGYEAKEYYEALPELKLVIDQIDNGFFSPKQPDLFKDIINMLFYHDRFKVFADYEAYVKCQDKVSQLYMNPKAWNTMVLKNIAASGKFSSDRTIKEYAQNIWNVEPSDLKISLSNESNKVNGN
Description: (§1) In this invention, enzyme activity is determined by measurement of the reverse activity of GPa, i.e., by measuring the release of phosphate due to the incorporation of glucose-1-phosphate into glycogen, where the amount of phosphate released is determined using the spectrophotometric method and experimental conditions described hereinbelow.
(§2) The three different purified glycogen phosphorylase (GP) isoenzymes from a human source, wherein glycogen phosphorylase is in the activated “a” state (referred to as glycogen phosphorylase a, or the abbreviation GPa), and referred to here as human liver glycogen phosphorylase a (HLGPa), human muscle glycogen phosphorylase a (HMGPa), and human brain glycogen phosphorylase a (HBGPa), can be obtained by the following procedures.
(§3) The effect of the compounds of Formula I or IA on the activity of the activated form of glycogen phosphorylase (GPa) can be determined by one of two methods; glycogen phosphorylase a activity is measured in the forward direction by monitoring the production of glucose-1-phosphate from glycogen or by following the reverse reaction, measuring glycogen synthesis from glucose-I-phosphate by the release of inorganic phosphate. All reactions are run in triplicate in 96-well microtiter plates and the change in absorbance due to formation of the reaction product is measured at the wavelength specified below in a MCC/340 MKII Elisa Reader (Lab Systems, Finland), connected to a Titertech Microplate Stacker (ICN Biomedical Co, Huntsville, Ala.).
(§4) Buffer B is at pH 7.2 and contains 50 mM HEPES, 100 mM KCl, 2.5 mM EGTA, 2.5 mM MgCl2 and 0.5 mM dithiothreitol. […] The compounds to be tested are added as 5 μL of solution in 14% DMSO prior to the addition of the enzyme. […] After a 20 minute incubation at room temperature, the absorbance is measured at 620 nm.
(§5) The above assays carried out with a range of concentrations of test compound allows the determination of an IC50 value (as defined hereinabove, see e.g., p. 14) for the in vitro inhibition of GPa enzyme activity by that test compound.

[2] = molecular target: T2, human muscle glycogen phosphorylase a (HMGPa) (Homo sapiens, UniProt P11217); assay: GPa activity assay, reverse direction (release of inorganic phosphate from glucose-1-phosphate), HMGPa; type: biochemical; details: recombinant human muscle GPa, glucose present
T2 construct: made in house; host or cells: E. coli XL-1 Blue (pKK233-2)
T2 sequence (P11217 1-842): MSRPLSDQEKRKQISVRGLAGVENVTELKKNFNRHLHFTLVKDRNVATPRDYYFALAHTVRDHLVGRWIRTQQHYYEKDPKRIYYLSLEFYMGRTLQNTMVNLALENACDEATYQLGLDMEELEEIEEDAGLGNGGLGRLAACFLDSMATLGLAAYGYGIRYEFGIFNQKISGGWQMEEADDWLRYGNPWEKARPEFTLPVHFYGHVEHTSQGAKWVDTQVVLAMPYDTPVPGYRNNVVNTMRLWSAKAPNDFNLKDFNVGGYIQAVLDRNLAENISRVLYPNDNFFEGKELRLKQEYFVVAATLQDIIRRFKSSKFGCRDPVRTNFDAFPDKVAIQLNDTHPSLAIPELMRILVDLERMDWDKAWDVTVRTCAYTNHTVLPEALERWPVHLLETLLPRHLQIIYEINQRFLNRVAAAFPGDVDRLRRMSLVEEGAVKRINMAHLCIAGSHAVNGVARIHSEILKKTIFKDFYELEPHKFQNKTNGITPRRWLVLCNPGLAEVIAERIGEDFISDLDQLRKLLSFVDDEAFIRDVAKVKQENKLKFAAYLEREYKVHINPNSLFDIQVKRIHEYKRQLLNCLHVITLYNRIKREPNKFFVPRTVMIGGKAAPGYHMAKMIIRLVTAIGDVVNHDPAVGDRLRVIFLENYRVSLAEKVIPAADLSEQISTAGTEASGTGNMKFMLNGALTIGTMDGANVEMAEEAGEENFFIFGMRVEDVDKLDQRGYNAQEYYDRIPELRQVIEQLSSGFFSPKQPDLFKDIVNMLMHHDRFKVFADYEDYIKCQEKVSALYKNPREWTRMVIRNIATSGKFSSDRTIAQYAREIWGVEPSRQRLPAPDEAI
Description: as §1, §2, §3, §4, §5

O=C(NCC(=O)N1CCSC1)c1cc2cc(Cl)ccc2[nH]1 [5-chloro-1H-indole-2-carboxylic acid (2-oxo-2-thiazolidin-3-yl-ethyl)-amide]
IC50 [1]: 0.307 µM | IC50 [2]: 0.433 µM

O=C(NC(Cc1ccccc1)C(=O)N1CCC(O)C1)c1cc2cc(Cl)ccc2[nH]1 (centres unmarked) [5-chloro-1H-indole-2-carboxylic acid [1-benzyl-2-(3-hydroxypyrrolidin-1-yl)-2-oxo-ethyl]-amide]
IC50 [1]: 0.045 µM | IC50 [2]: 0.085 µM

O=C(N[C@@H](Cc1ccccc1)C(=O)N1C[C@@H](O)[C@@H](O)C1)c1cc2cc(Cl)ccc2[nH]1 [5-chloro-1H-indole-2-carboxylic acid [(1S)-benzyi-2-(cis-3,4-dihydroxypyrrolidin-1-yl)-2-oxo-ethyl]-amide]
IC50 [1]: 0.03 µM | IC50 [2]: 0.097 µM

O=C(N[C@@H](Cc1ccccc1)C(=O)N1CC(O)C1)c1cc2cc(Cl)ccc2[nH]1 [5-chloro-1H-indole-2-carboxylic acid [(1S)-benzyl-2-(3-hydroxy-azetidin-1-yl)-2-oxo-ethyl]-amide]
IC50 [1]: 0.065 µM | IC50 [2]: 0.121 µM

O=C(N[C@@H](Cc1ccccc1)C(=O)N1CC(=NO)C1)c1cc2cc(Cl)ccc2[nH]1 [5-chloro-1H-indole-2-carboxylic acid [(1S)-benzyl-2-(3-hydroxyimino-azetidin-1-yl)-2-oxo-ethyl]-amide]
IC50 [1]: 0.065 µM | IC50 [2]: 0.084 µM

O=C(N[C@@H](Cc1ccccc1)C(=O)N1C[C@H](O)[C@@H](O)C1)c1cc2cc(Cl)ccc2[nH]1 [5-chloro-1H-indole-2-carboxylic acid [(1S)-benzyl-2-((3S,4S)-dihydroxy-pyrrolidin-1-yl)-2-oxo-ethyl-amide]
IC50 [1]: 0.137 µM | IC50 [2]: 0.071 µM

O=C(N[C@@H](Cc1ccccc1)[C@@H](O)C(=O)N1CC(O)C1)c1cc2cc(Cl)ccc2[nH]1 [5-chloro-1H-indole-2-carboxylic acid [(1S)-benzyl-3-((3-hydroxyazetidin-1-yl)-(2R)-hydroxy-3-oxopropyl]-amide]
IC50 [1]: 0.236 µM | IC50 [2]: 0.706 µM

O=C(N[C@@H](Cc1ccccc1)[C@@H](O)C(=O)N1C[C@@H](O)[C@@H](O)C1)c1cc2cc(Cl)ccc2[nH]1 [5-chloro-1H-indole-2-carboxylic acid [(1S)-benzyl-3-(cis-3,4-dihydroxy-pyrrolidin-1-yl)-(2R)-hydroxy-3-oxopropyl]-amide]
IC50 [1]: 0.059 µM | IC50 [2]: 0.385 µM

O=C(N[C@@H](Cc1ccccc1)[C@@H](O)C(=O)N1CC[C@H](O)C1)c1cc2cc(Cl)ccc2[nH]1 [5-chloro-1H-indole-2-carboxylic acid [(1S)-benzyl-(2R)-hydroxy-3-((3S)-hydroxy-pyrrolidin-1-yl)-3-oxopropyl]-amide]
IC50 [1]: 0.054 µM | IC50 [2]: 0.096 µM

O=C(N[C@@H](Cc1ccccc1)[C@@H](O)C(=O)N1C[C@H](O)[C@@H](O)C1)c1cc2cc(Cl)ccc2[nH]1 [5-chloro-1H-indole-2-carboxylic acid [(1S)-benzyl-(2R)-hydroxy-3-((3S,4S)-dihydroxy-pyrrolidin-1-yl)-3-oxopropyl]-amide]
IC50 [1]: 0.073 µM | IC50 [2]: 0.09 µM
